The data set can be described thus: Confirmation of precipitation of 4,4′-diisopropylbiphenyl crystals on cooling. Particulars: cooled to −10° C. It is filed as physicochemical. The protocol: (Confirmation of Precipitation of 4,4′-diisopropylbiphenyl Crystals)
Solutions each containing 4,4′-diisopropylbiphenyl in ratios of 15% by mass and 30% by mass in diisopropylbiphenyl were respectively prepared in an amount of 50 g. Each solution was cooled to −10° C. […] Therefore, as mentioned above, in the case where the content of diisopropylbiphenyl contained in the solution recovery from the tower top of the distillation tower is 7.6% by mass and this amount is 27.6% by mass of the amount of diisopropylbiphenyl measured at the outlet of the reactor, with the result that the amount of 4,4′-diisopropylbiphenyl in diisopropylbiphenyl as a product is 14.1% by mass, there is no particular problem as to the low-temperature characteristics of the product. However, if the amount of diisopropylbiphenyl contained in the solution recovery from the tower top of the distillation tower becomes increase and the amount of 4,4′-diisopropylbiphenyl in diisopropylbiphenyl as a product becomes increase, the low-temperature characteristics will deteriorate.

Our source for the precipitation of crystals values is US20040073074A1, “Method of continuous production of polyalkylbiphenyls” (priority 2002, published 2004).

On to `CC(C)c1ccc(-c2ccc(C(C)C)cc2)cc1` [4,4′-diisopropylbiphenyl], for which the precipitation of crystals result is, setting by setting: (15% by mass in diisopropylbiphenyl) “no precipitation of crystals was observed”; (30% by mass in diisopropylbiphenyl) “a large amount of 4,4′-diisopropylbiphenyl precipitated”.
